Reference: patent publication US20230310459A1, “NEUROACTIVE STEROIDS AND THEIR METHODS OF USE” (Sage Therapeutics, Inc., priority 2017, published 2023)
“Also recorded” adds a separate entry of the source.

System: Adult patients with moderate to severe Major Depressive Disorder (MDD)
Experiment: Phase 2 double-blind placebo-controlled trial (Part B): safety and tolerability
Format: in vivo, human
Description: In the randomized, double-blind, parallel-group, placebo-controlled trial, eligible patients (with a minimum total score of 22 on the Hamilton Rating Scale for Depression) were stratified based on use of antidepressant treatment (current/stable or not treated/withdrawn ≥30 days) and randomized in a 1:1 ratio to receive Compound 1 Capsules (30 mg) or matching placebo. All doses of study drug were administered at night with food. The study consisted of a 14-day treatment period, and a 4-week follow-up period. The mean HAM-D total scores at baseline were 25.2 for the Compound 1 group and 25.7 for the placebo group (overall range 22-33), representing patients with moderate to severe MDD. Approximately 90 percent of patients in each group completed the study.

C[C@@]1(O)CC[C@H]2[C@H](CC[C@@H]3[C@@H]2CC[C@]2(C)[C@@H](C(=O)Cn4cc(C#N)cn4)CC[C@@H]32)C1 [Compound 1, 1-(2-((3R,5R,8R,9R,10S,13S,14S,17S)-3-hydroxy-3,13-dimethylhexadecahydro-1H-cyclopenta[a]phenanthren-17-yl)-2-oxoethyl)-1H-pyrazole-4-carbonitrile]
deaths, serious or severe adverse events (Capsules 30 mg for 14 days): no deaths, serious or severe adverse events
most common AEs (Capsules 30 mg for 14 days): headache, dizziness, nausea, and somnolence
tolerability (Capsules 30 mg for 14 days): generally well-tolerated; also recorded: generally well tolerated
overall incidence of patients who experienced adverse events (Capsules 30 mg for 14 days, placebo 46%): 53%
rate of discontinuation from dosing of study drug due to adverse events (two patients, none with placebo): 4.4%
